Measurements reported in patent US20230381328A1, “COMPOUND FOR THE PREVENTION OR TREATMENT OF MYASTHENIA GRAVIS” (ABLEVIA BIOTECH GMBH, priority 2020, published 2023).

The substances below were run on myasthenogenic antibody mAB 198 (assay: Peptide microarray mimotope screen, binding of mAB 198 to linear and cyclic peptides (fluorescence readout)). Conditions: cyclic mimotopes; binding of mAB 198, relative fluorescent signal after normalization against background.
Design: species or system rat
Description: A custom peptide array of 30000 peptides was synthesized, with peptides of 7-19 amino acids in size; the peptides were based on substitution analyses of 176 AChR-MIR peptides with exchanges of each amino acid positions by each of the 20 common amino acids. Peptides were synthesized directly on a microarray, and screened with monoclonal antibody mAB 198 in order to obtain mimotopes with a binding strength which was improved over the human AChR alpha chain MIR-containing sequence […] (Tzartos et al, 1991; Luo et al, 2009) and over a previously published mimotope sequence ([…]), that was derived from Torpedo AchR with the help of antibody mAB 132A (Trinh et al, 2014). In particular, the wild type AChR-MIR sequence is known to structurally mimic to a certain extent the epitope recognized by myasthenogenic, unwanted and disease-causing antibodies from patients. The mimotope peptide library was designed by permutation of each single amino acid position of these two sequences with all natural amino acids in order to provide a maximally diversified collection of peptide variants. All peptides were synthesized in doublets as linear and as cyclic peptides. The aim was to obtain peptides (mimotopes) that mimic the natural epitope of myasthenogenic antibodies.
For the mimotope screen, the antibody mAB 198 (Absolute Antibody Ltd, UK) was used. This is a prototype antibody that was generated in rats using human AChR (Tzartos et al, 1983; Asher et al, 1993). […] Therefore, mAB198 was used as a surrogate probe to screen for new mimotopes that are capable of mimicking the corresponding AChR-MIR epitope or portions of the epitope.
As a readout, binding of mAB 198 to the 30000 linear and cyclic peptides was measured by fluorescence readout, and peptides were ranked according to their relative fluorescent signal after normalization against the background.
The top-ranked 100 linear and cyclic mimotopes are listed in Table 1 and Table 2 above, respectively.

| relative signal [%] | Substance |
| --- | --- |
| 23.8% | 123 (RGNPADY) [compound 123] |
| 10.3% | 173 (LRWNPADYGGF) [compound 173] |
| 10.0% | 179 (LRPNPADYG) [compound 179] |
| 12.1% | 157 (GSLRINPADYG) [compound 157] |
| 12.2% | 156 (RANPADY) [compound 156] |
| 8.8% | 194 (DVRLRQNPADY) [compound 194] |
| 25.4% | 119 (GGSLRINPADY) [compound 119] |
| 9.1% | 190 (RWNPADF) [compound 190] |
| 43.2% | 104 (WIDVRLRGNPA) [compound 104] |
| 10.8% | 164 (RLHWNPADY) [compound 164] |
| 12.4% | 154 (GSLRWNPADYP) [compound 154] |
| 12.4% | 153 (RPRWNPADY) [compound 153] |
| 9.8% | 183 (RLRPNPADY) [compound 183] |
| 61.3% | 102 (RLRVNPADY) [compound 102] |
| 10.1% | 175 (RLRWNPADYHG) [compound 175] |
| 28.6% | 112 (LRLNPADYG) [compound 112] |
| 100.0% | 101 (VRLRWNPADYP) [compound 101] |
| 24.9% | 121 (WNPADYR) [compound 121] |
| 11.0% | 163 (RWNPADR) [compound 163] |
| 18.7% | 137 (RVNPADY) [compound 137] |
| 16.2% | 138 (GSLRWNPADYR) [compound 138] |
| 11.5% | 162 (RIRWNPADY) [compound 162] |
| 12.5% | 151 (VNPADYG) [compound 151] |
| 32.7% | 108 (RLRGNPADY) [compound 108] |
| 12.2% | 155 (SLRYNPADY) [compound 155] |
| 10.6% | 166 (RLRQNPADY) [compound 166] |
| 11.5% | 161 (GGSLRYNPADY) [compound 161] |

| relative signal [%] | Substance |
| --- | --- |
| 10.3% | 171 (GGSLRWNPADR) [compound 171] |
| 14.6% | 143 (RTNPADY) [compound 143] |
| 9.0% | 192 (WNPDDYR) [compound 192] |
| 8.7% | 195 (SLRWNPADYHG) [compound 195] |
| 28.2% | 113 (LRRNPAD) [compound 113] |
| 21.1% | 133 (WNPADYP) [compound 133] |
| 25.5% | 118 (RLRINPADY) [compound 118] |
| 9.8% | 182 (RSRWNPADY) [compound 182] |
| 27.4% | 116 (NPADYRG) [compound 116] |
| 14.5% | 144 (GGSLRFNPADY) [compound 144] |
| 9.0% | 191 (RLRGNPADYGG) [compound 191] |
| 10.0% | 177 (GSLRWNPADYN) [compound 177] |
| 37.5% | 106 (RFNPADY) [compound 106] |
| 10.3% | 172 (LRWNPADYR) [compound 172] |
| 10.2% | 174 (GSLRWNPADYD) [compound 174] |
| 19.5% | 136 (NPADYGR) [compound 136] |
| 8.5% | 200 (GGSLRLNPADY) [compound 200] |
| 12.5% | 152 (GGGSLRRNPAD) [compound 152] |
| 10.5% | 167 (DVRLRWNPSDY) [compound 167] |
| 9.1% | 189 (LRGNPAD) [compound 189] |
| 22.5% | 128 (GGSLRVNPADY) [compound 128] |
| 10.5% | 168 (VRLRWNPADYS) [compound 168] |
| 9.7% | 186 (GSLRWNPADYQ) [compound 186] |
| 28.0% | 114 (SLRINPADY) [compound 114] |
| 10.0% | 176 (RLRWNPADYGP) [compound 176] |
| 9.4% | 188 (SLYWNPADY) [compound 188] |

Same assay, conditions: linear mimotopes; binding of mAB 198, relative fluorescent signal after normalization against background

| relative signal [%] | Substance |
| --- | --- |
| 8.3% | 70 (YNLKYNP) [compound 70] |
| 9.5% | 59 (GSLRRNPAD) [compound 59] |
| 10.3% | 55 (NPADYDG) [compound 55] |
| 13.6% | 36 (SLHWNPADY) [compound 36] |
| 10.6% | 52 (GGGSLRRNPAD) [compound 52] |
| 40.6% | 6 (WNPADYR) [compound 6] |
| 17.3% | 25 (LRLNPADYG) [compound 25] |
| 7.4% | 79 (HWNPADY) [compound 79] |
| 7.6% | 76 (VPLRWNPAD) [compound 76] |
| 13.7% | 34 (WNPADYGHI) [compound 34] |
| 6.9% | 83 (RLRGNPADY) [compound 83] |
| 9.5% | 58 (RPNPADY) [compound 58] |
| 20.5% | 19 (WNPADYP) [compound 19] |
| 25.0% | 14 (VRLRRNPAD) [compound 14] |
| 13.7% | 35 (YNLKFNP) [compound 35] |
| 18.1% | 23 (NPADYGH) [compound 23] |
| 6.4% | 96 (QWVDCNLKFNP) [compound 96] |
| 7.1% | 82 (GGGSLRYNP) [compound 82] |
| 7.6% | 78 (VDYNLKFNP) [compound 78] |
| 15.9% | 28 (LRYNPAD) [compound 28] |
| 10.6% | 53 (LRWNPADYGGF) [compound 53] |

| relative signal [%] | Substance |
| --- | --- |
| 12.2% | 45 (NPADYGR) [compound 45] |
| 21.6% | 16 (GSLRFNP) [compound 16] |
| 6.1% | 97 (LRPNPADYG) [compound 97] |
| 8.9% | 65 (GNPADYGGI) [compound 65] |
| 6.7% | 88 (HRLRWNPAD) [compound 88] |
| 59.3% | 3 (NPADYHG) [compound 3] |
| 16.5% | 27 (RYNPADY) [compound 27] |
| 8.0% | 73 (NPADYGI) [compound 73] |
| 9.9% | 57 (RRNPADY) [compound 57] |
| 12.4% | 42 (RLRWNPADYHG) [compound 42] |
| 31.6% | 9 (LRVNPADYG) [compound 9] |
| 6.0% | 99 (ALRWNPADY) [compound 99] |
| 28.3% | 10 (LRRNPADYG) [compound 10] |
| 34.4% | 8 (GSLRYNP) [compound 8] |
| 8.6% | 68 (RPNPADYGG) [compound 68] |
| 7.6% | 77 (YNLPWNP) [compound 77] |
| 21.3% | 17 (NPDDYHG) [compound 17] |
| 25.2% | 13 (LRLNPAD) [compound 13] |
| 27.1% | 11 (VRLRFNP) [compound 11] |
| 15.0% | 31 (IDVRLRFNP) [compound 31] |
| 9.3% | 62 (GSLRFNPAD) [compound 62] |

| relative signal [%] | Substance |
| --- | --- |
| 8.9% | 66 (RHNPADY) [compound 66] |
| 14.9% | 32 (RLRVNPADY) [compound 32] |
| 7.9% | 74 (IDVRLRFNPAD) [compound 74] |
| 7.2% | 81 (LRWNPADYHGI) [compound 81] |
| 15.7% | 29 (LHWNPAD) [compound 29] |
| 6.5% | 95 (SLRFNPADY) [compound 95] |
| 8.8% | 67 (WNPDDYGHV) [compound 67] |
| 10.6% | 54 (SLRWNPADYHG) [compound 54] |
| 13.0% | 39 (GGGSLRFNP) [compound 39] |
| 37.1% | 7 (LRFNPAD) [compound 7] |
| 9.4% | 61 (RWNPADYGH) [compound 61] |
| 9.4% | 60 (WNPADYH) [compound 60] |
| 20.1% | 21 (QWIDVRLRFNP) [compound 21] |
| 6.0% | 100 (NPADYGV) [compound 100] |
| 9.2% | 63 (LRINPAD) [compound 63] |
| 26.3% | 12 (VRLRYNP) [compound 12] |
| 11.0% | 49 (SLRINPADY) [compound 49] |
| 21.8% | 15 (RFNPADY) [compound 15] |
| 21.2% | 18 (NPADYGY) [compound 18] |
| 12.6% | 41 (RWNPADF) [compound 41] |
